Reference: the C3SDB collision cross section collection
Values joined by “and” are separate entries in the source; they are usually repeats but may differ in a detail not shown here. Equal values may be shown once.

Conditions: instrument: DT, stepped-field

Structure (SMILES)	collision cross section (N2) ([M+K]+)	collision cross section (N2) ([M+Na]+)	other results
CC(C)C[C@H](NC(=O)[C@H](C)NC(=O)[C@H](CC(=O)O)NC(=O)[C@H](C)NC(=O)[C@H](C)N)C(=O)N[C@@H](CC(C)C)C(=O)N[C@@H](CC(C)C)C(=O)N[C@@H](CCCCN)C(=O)O [AADALLLK]			collision cross section (N2) ([M+H]+): 291.8 Å² and 277.8 Å²
CCC(C)[C@H](NC(=O)[C@H](CC(N)=O)NC(=O)[C@H](C)N)C(=O)N[C@@H](CC(=O)O)C(=O)N[C@H](C(=O)N[C@@H](CCCCN)C(=O)O)C(C)C (stereo not given in full) [ANIDVK]			collision cross section (N2) ([M+H]+): 248.1 Å²
CC(C)C[C@H](NC(=O)[C@H](C)NC(=O)[C@@H](N)CCC(=O)O)C(=O)N[C@@H](CC(=O)O)C(=O)N[C@@H](Cc1ccccc1)C(=O)N[C@@H](Cc1ccccc1)C(=O)N[C@@H](C)C(=O)N[C@@H](CCCNC(=N)N)C(=O)O [EALDFFAR]			collision cross section (N2) ([M+H]+): 305.9 Å²
CC(C)C[C@H](NC(=O)[C@H](CCC(=O)O)NC(=O)[C@@H](N)CCC(=O)O)C(=O)N[C@@H](Cc1ccccc1)C(=O)N[C@@H](CCCNC(=N)N)C(=O)O [EELFR]			collision cross section (N2) ([M+H]+): 254.1 Å²
NCC(=O)N[C@@H](CCCN=C(N)N)C(=O)NCC(=O)N[C@@H](CC(=O)O)C(=O)N[C@@H](CO)C(=O)O [GRGDS]	210.4 Å²	208.2 Å²	collision cross section (N2) ([M+H]+): 205.9 Å²
CC(C)[C@H](NC(=O)CN)C(=O)N[C@@H](Cc1ccccc1)C(=O)N[C@@H](CCCNC(=N)N)C(=O)O [GVFR]			collision cross section (N2) ([M+H]+): 214.8 Å²
CCCCCCCCCCCCCCCC(=O)N[C@@H](CO[C@@H]1O[C@H](CO)[C@@H](O)C(O)C1O)[C@H](O)CCCCCCCCCCCCCCC (stereo not given in full) [GlcCer(34:0)]		281.7 Å²	
CCCCCCCCCCCCC=CC[C@@H](O)[C@H](CO[C@@H]1O[C@H](CO)[C@@H](O)C(O)C1O)NC(=O)CCCCCCCCCCCCCCCCCC (stereo not given in full) [GlcCer(37:1)]		286.8 Å²	
CCCCCCCCCCCCCCCCCCCC(=O)N[C@@H](CO[C@@H]1O[C@H](CO)[C@@H](O)C(O)C1O)[C@H](O)CCCCCCCCCCCCCCC (stereo not given in full) [GlcCer(38:0)]		295.6 Å²	
CCCCCCCCCCCCC=CC[C@@H](O)[C@H](CO[C@@H]1O[C@H](CO)[C@@H](O)C(O)C1O)NC(=O)CCCCCCCCCCCCCCCCCCC (stereo not given in full) [GlcCer(38:1)]		293.8 Å²	
CCCCCCCCCCCCC=CC[C@@H](O)[C@H](CO[C@@H]1O[C@H](CO)[C@@H](O)C(O)C1O)NC(=O)CC=CCCCCCCCCCCCCCCCCCC (stereo not given in full) [GlcCer(40:2)]		297.1 Å²	
CCCCCCCCCCCCC=CC[C@@H](O)[C@H](CO[C@@H]1O[C@H](CO)[C@@H](O)C(O)C1O)NC(=O)CC=CCCCCCCCCCCCCCCCCCCCCC (stereo not given in full) [GlcCer(43:2)]		307.8 Å²	
CCCCCCCCCCCCC=CC[C@@H](O)[C@H](CO[C@@H]1O[C@H](CO)[C@@H](O)C(O)C1O)NC(=O)CC=CCCCCCCCCCCCCCCCCCCCCCC (stereo not given in full) [GlcCer(44:2)]		315.3 Å²	
CCCCCCCCCCCCC=CC[C@@H](O)[C@H](CO[C@@H]1O[C@H](CO)[C@@H](O)C(O)C1O)NC(=O)CC=CCC=CCCCCCCCCCCCCCCCCCCC (stereo not given in full) [GlcCer(44:3)]		310.7 Å²	
CC(C)C[C@H](NC(=O)[C@H](CC(=O)O)NC(=O)[C@H](C)NC(=O)[C@H](CC(C)C)NC(=O)[C@@H](N)Cc1c[nH]cn1)C(=O)N[C@@H](CO)C(=O)N[C@@H](CCCCN)C(=O)O [HLADLSK]			collision cross section (N2) ([M+H]+): 273.3 Å²
CC(=O)NC1C(OC2C(O)C(CO)OC(OC3C(CO)OC(O)C(O)C3O)C2O)OC(CO)C(O)C1OC1OC(CO)C(O)C(O)C1O (stereo not given) [HexNAc-(Hex)3]	248.2 Å²	244 Å²	collision cross section (N2) ([M+Na-H2O]+): 244.9 Å²
CC(=O)NC1C(OC2C(O)C(CO)OC(OC(C(O)CO)C(OC3OC(C)C(O)C(O)C3O)C(O)C=O)C2O)OC(CO)C(O)C1OC1OC(CO)C(O)C(O)C1O (stereo not given) [HexNAc-Fuc-(Hex)3]			collision cross section (N2) ([M+Na-H2O]+): 262 Å² and 263.1 Å²
CCC(C)[C@H](N)C(=O)NCC(=O)N[C@@H](CC(=O)O)C(=O)N[C@@H](Cc1ccc(O)cc1)C(=O)N[C@@H](C)C(=O)NCC(=O)N[C@H](C(=O)N[C@@H](CCCCN)C(=O)O)C(C)CC (stereo not given in full) [IGDYAGIK]			collision cross section (N2) ([M+H]+): 285.9 Å²
CC(C)C[C@H](NC(=O)[C@H](CC(C)C)NC(=O)[C@H](CCC(N)=O)NC(=O)[C@H](CC(N)=O)NC(=O)[C@@H](N)CC(C)C)C(=O)N[C@@H](CCCNC(=N)N)C(=O)O [LNQLLR]			collision cross section (N2) ([M+H]+): 275.6 Å²
CC(=O)N[C@H]1[C@H](OC2[C@@H](O)[C@H](O[C@@H]([C@H](O[C@@H]3O[C@@H](C)[C@@H](O)[C@@H](O)[C@@H]3O)[C@@H](O)C=O)[C@H](O)CO)O[C@H](CO)[C@@H]2O)O[C@H](CO)[C@@H](O[C@@H]2O[C@@H](C)[C@@H](O)[C@@H](O)[C@@H]2O)[C@@H]1O[C@@H]1O[C@H](CO)[C@H](O)[C@H](O)[C@H]1O (stereo not given in full) [Lacto-N-Difucohexaose II]	305.8 Å²	291.2 Å² and 306.3 Å²	
OC[C@H]1O[C@H](O[C@H]2[C@H](O)[C@@H](O)[C@@H](O[C@H]3[C@H](O)[C@@H](O)[C@@H](O[C@H]4[C@H](O)[C@@H](O)[C@@H](O[C@H]5[C@H](O)[C@@H](O)[C@@H](O[C@H]6[C@H](O)[C@@H](O)[C@@H](O)O[C@@H]6CO)O[C@@H]5CO)O[C@@H]4CO)O[C@@H]3CO)O[C@@H]2CO)[C@H](O)[C@@H](O)[C@@H]1O [Maltohexaose]	293.3 Å²	286.4 Å²	
CCC(C)[C@H](NC(=O)[C@H](CC(N)=O)NC(=O)[C@H](CCC(=O)O)NC(=O)[C@H](C)NC(=O)[C@H](CC(C)C)NC(=O)[C@@H](N)CC(N)=O)C(=O)N[C@@H](CO)C(=O)N[C@@H](CCCNC(=N)N)C(=O)O (stereo not given in full) [NLAENISR]			collision cross section (N2) ([M+H]+): 291.7 Å²

Structure (SMILES)	collision cross section (N2) ([M+K]+)	collision cross section (N2) ([M+Na]+)	other results
CCCCC/C=C\C/C=C\C/C=C\CCCCC(=O)O[C@H](COC(=O)CCCCCCCCCCCCC)COP(=O)([O-])OCC[N+](C)(C)C [PC(32:3)]	288.9 Å²		
CCCCC/C=C\C/C=C\C/C=C\CCCCC(=O)O[C@H](COC(=O)CCCCCCC/C=C\CCCCC)COP(=O)([O-])OCC[N+](C)(C)C [PC(33:4)]	287.5 Å²		
CC\C=C/C=C/C=C/C=C\CCCCCCCC(=O)O[C@H](COC(=O)CCCCCCCCCCCCCCC)COP(=O)([O-])OCC[N+](C)(C)C [PC(34:4)]	289 Å²		
CC/C=C\C/C=C\C/C=C\C/C=C\CCCCC(=O)OC[C@H](COP(=O)([O-])OCC[N+](C)(C)C)OC(=O)CCCCCCCCCCCCCCCC [PC(35:4)]	294.5 Å²		
CCCC/C=C\C/C=C\CCCCCCCC(=O)OC[C@H](COP(=O)([O-])OCC[N+](C)(C)C)OC(=O)CCCC/C=C\C/C=C\C/C=C\CCCCC [PC(35:5)]	293.8 Å²		
CCCCC/C=C\C/C=C\C/C=C\C/C=C\CCCCCC(=O)O[C@H](COC(=O)CCCCCCC/C=C\CCCCC)COP(=O)([O-])OCC[N+](C)(C)C [PC(37:5)]	299 Å²		
CC/C=C\C/C=C\C/C=C\C/C=C\C/C=C\C/C=C\CCC(=O)O[C@H](COC(=O)CCCCCCC/C=C\CCCCC)COP(=O)([O-])OCC[N+](C)(C)C [PC(37:7)]	296.6 Å²		
CC/C=C\C/C=C\C/C=C\C/C=C\C/C=C\CCCC(=O)O[C@H](COC(=O)CCCC/C=C\C/C=C\C/C=C\CCCCC)COP(=O)([O-])OCC[N+](C)(C)C [PC(38:8)]		299.9 Å²	
CCCC=CCC=CCC=CCC=CCC=CCC(=O)OC[C@H](COP(=O)(O)OCC[N+](C)(C)C)OC(=O)CC=CCC=CCC=CCC=CCC=CCCC [PC(38:10)]		295.9 Å²	
CC/C=C\C/C=C\C/C=C\C/C=C\C/C=C\CCCCCC(=O)O[C@H](COC(=O)CCCCCCCCCCCCCCCC)COP(=O)([O-])OCC[N+](C)(C)C [PC(39:5)]	304.7 Å²		
CC/C=C\C/C=C\C/C=C\C/C=C\C/C=C\CCCC(=O)OC[C@H](COP(=O)([O-])OCC[N+](C)(C)C)OC(=O)CCC/C=C\C/C=C\C/C=C\C/C=C\C/C=C\CC [PC(40:10)]		301.5 Å²	
CCCCCCC=CCC=CCC(=O)OC[C@H](COP(=O)(O)OCCN)OC(=O)CC=CCC=CCCCCCC [PE(26:4)]	245.4 Å²		
CCCC=CCC=CCC=CCC(=O)OC[C@H](COP(=O)(O)OCCN)OC(=O)CC=CCC=CCC=CCCC [PE(26:6)]	241.7 Å²		
CCCCCCCCCCCCCCCCC(=O)O[C@H](COC(=O)CCCCCCCCCCCCCCC)COP(=O)(O)OCCN [PE(33:0)]	277.2 Å²		
CCCCCCCCCCCCCCCCCCC(=O)O[C@H](COC(=O)CCCCCCCCCCCCCCC)COP(=O)(O)OCCN [PE(35:0)]	286.2 Å²		
CCCC/C=C\CCCCCCCC(=O)OC[C@H](COP(=O)(O)OCCN)OC(=O)CCCCC/C=C\C/C=C\C/C=C\C/C=C\CCCCC [PE(36:5)]		278.2 Å²	
CC/C=C\C/C=C\C/C=C\C/C=C\CCCCC(=O)O[C@H](COC(=O)CCCCCCC/C=C\C/C=C\CCCCC)COP(=O)(O)OCCN [PE(36:6)]		276.3 Å²	
CC/C=C\C/C=C\C/C=C\C/C=C\CCCCC(=O)O[C@H](COC(=O)CCC/C=C\C/C=C\C/C=C\C/C=C\CCCCC)COP(=O)(O)OCCN [PE(38:8)]		281.9 Å²	
CCCCC/C=C\C/C=C\CCCCCCCCCC(=O)OC[C@H](COP(=O)(O)OCCN)OC(=O)CCCCCCCCCCCCCCCCCC [PE(39:2)]	295.9 Å²		
CCCCC/C=C\C/C=C\CCCCCCCCCC(=O)O[C@H](COC(=O)CCCCCCC/C=C\CCCCCCCCC)COP(=O)(O)OCCN [PE(39:3)]	293.4 Å²		
CCCCC/C=C\C/C=C\C/C=C\C/C=C\CCCCCC(=O)O[C@H](COC(=O)CCCCCCCCCCCCCCCC)COP(=O)(O)OCCN [PE(39:4)]		292.8 Å²	
CC/C=C\C/C=C\C/C=C\C/C=C\C/C=C\CCCC(=O)O[C@H](COC(=O)CCCCCCCCC/C=C\C/C=C\CCCCC)COP(=O)(O)OCCN [PE(40:7)]		290.8 Å²	
